Source: patent publication US8637274B2, “Inhibitor for the formation of gamma-secretase complex” (Kowa Company, Ltd., priority 2003, dated 2014)

How the values were obtained:
Assay type in all cases: cell-based
[1] = test system: cholesterol in lipid rafts of SH-SY5Y cell; experiment: Quantification of cholesterol content in sucrose density-gradient cell membrane fractions (lipid rafts = fraction 3); details: for cholesterol content in lipid rafts (fraction 3): 5% LPDS, 48 hours, FIG. 4
Description: (§1) SH-SY5Y cell line (Invitrogen) was subcultured in a complete medium (DMEM (Sigma) containing 10% of fetal bovine serum (Sigma), 100 units/mL of penicillin and […] of streptomycin) using a dish of 15 cm diameter at 37° C.
(§2) The SH-SY5Y cell was cultured in a dish of 15 cm diameter, and the cells reached confluent growth in the dish was washed with phosphate buffered saline (PBS). The cells were detached from the dish using cell scraper and recovered in PBS, then centrifuged at 9807 m/s^2 for 5 minutes. The precipitated cells were suspended in buffer R (20 mM Tris-HCl pH 7.6, 150 mM NaCl, 1 mM EDTA) containing 200 μL of a mixture of 2% CHAPSO and proteases (Complete protease mixture) (Roche). Solubilization of the cell was performed by means of leaving the cell suspension for standing on an ice bath for 20 minutes. After solubilizing, 800 μL of the buffer R containing 56.25% sucrose was added to make the final concentration to be 45% sucrose and 0.4% CHAPSO, and placed in the bottom of centrifuging tube. Further, 3 mL of the buffer R containing 35% sucrose and 1 mL of the buffer R containing 5% sucrose were overlaid sequentially on top of the layers. After centrifugation at 980700 m/s^2 (32000 rpm) for 16 hours at 4° C. using Beckman ultracentrifuge equipped with SW55 rotor, each 500 μL aliquot was withdrawn from top as fractions.
(§3) The SH-SY5Y cell was cultured in a dish of 15 cm diameter, and the cells reached confluent growth in the dish were washed with PBS. After that, methyl-β-cyclodextrin (Sigma) dissolved in DMEM to make the final concentration to be 0 to 2 mM was added to the dish, and cultured at 37° C. for another 30 minutes. These cells were processed and fractionated according to the method described in the Reference Example 2, and subjected to the immunoblotting.
The SH-SY5Y cell was cultured in a dish of 15 cm diameter and the cells of just before arriving confluent growth in a dish were washed with PBS. […]

[2] = test system: active complex of γ-secretase (nicastrin, presenilin-1, presenilin-2, Pen-2) in lipid rafts of SH-SY5Y cell; experiment: Immunoblotting of γ-secretase constituents in sucrose density-gradient cell membrane fractions; details: for constituents of γ-secretase (nicastrin, presenilin-1, presenilin-2) in lipid rafts fraction (fraction 3): FIG. 3A-3C
Description: as §1, §2
(§4) After SDS-polyacrylamide gel electrophoresis was carried out for each fraction obtained in the Reference Example 2, immunoblotting was performed. The antibodies used were nicastrin N-19 (Santa Cruz) as a nicastrin recognizing antibody, anti-G1L3 as an antibody recognizing C-terminal region of presenilin 1, anti-G2L as an antibody recognizing C-terminal region of presenilin 2, anti-PNT3 as a PEN-2 recognizing antibody, Flotillin-1 (BD Sciences) as a flotillin-1 recognizing antibody, and Calnexin (BD Biosciences) as a calnexin recognizing antibody.
After reacting at room temperature for 1 hour or at 4° C. overnight, the gels were washed twice with TBS-Tween (20 mM Tris-buffered saline, pH 7.4, 0.05% Tween 20). Then, the gels were reacted with HRP-conjugated anti mouse IgG antibody, anti goat IgG antibody, or anti rabbit IgG antibody each for 1 hour, and washed with TBS-Tween. And then, an X-ray film was exposed to the chemiluminescence generated using SuperSignal West Dura (Pierce).
as §3
The SH-SY5Y cell was cultured in a dish of 15 cm diameter and the cells of just before arriving confluent growth in a dish were washed with PBS. After that, the cells were cultured in DMEM containing 5% of LPDS, 250 μM of mevalonic acid and 50 μM of compactin or 5 μM of pitavastatin as a cholesterol synthesis inhibitor for 48 hours. These cells were processed and fractionated according to the method described in the Reference Example 2, and subjected to the immunoblotting.

[3] = test system: flotillin-1 (marker protein of lipid rafts), SH-SY5Y cell; experiment: Immunoblotting of lipid raft marker flotillin-1 in sucrose density-gradient cell membrane fractions; details: for flotillin in the lipid rafts fraction (structure of lipid rafts): 48 hours, FIG. 3D
Description: as §1, §2, §4
After reacting at room temperature for 1 hour or at 4° C. overnight, the gels were washed twice with TBS-Tween (20 mM Tris-buffered saline, pH 7.4, 0.05% Tween 20). […]

[4] = 5 μM pitavastatin plus 250 μM mevalonic acid
[5] = 5 μM pitavastatin plus 250 μM mevalonic acid, 48 hours
[6] = 50 μM compactin plus 250 μM mevalonic acid
[7] = 50 μM compactin plus 250 μM mevalonic acid, 48 hours

Compound: O=C(O)C[C@H](O)C[C@H](O)/C=C/c1c(C2CC2)nc2ccccc2c1-c1ccc(F)cc1 [pitavastatin, (3R,5S,6E)-7-[2-cyclopropyl-4-(4-fluorophenyl)-3-quinolyl]-3,5-dihydroxy-6-heptenoic acid]
- cholesterol content in lipid rafts (fraction 3) [1, 4]: decreased
- formation of an active complex of γ-secretase in lipid rafts [2, 5]: inhibited the formation of an active complex of γ-secretase in lipid rafts
- constituents of γ-secretase (nicastrin, presenilin-1, presenilin-2) in lipid rafts fraction (fraction 3) [2, 5]: disappeared from lipid rafts fraction
- flotillin in the lipid rafts fraction (structure of lipid rafts) [3, 4]: still remained in the lipid rafts fraction

Compound: CC[C@H](C)C(=O)O[C@H]1CCC=C2C=C[C@H](C)[C@H](CC[C@@H]3C[C@@H](O)CC(=O)O3)[C@H]21 [compactin, (+)-(1S,3R,7S,8S.8aR)-1,2,3,7,8,8a-hexahydro-7-methyl-8-[2-[(2R,4R)-tetrahydro-4-hydroxy-6-oxo-2H-pyran-2-yl]ethyl]-1-naphthyl (S)-2-methylbutyrate]
- cholesterol content in lipid rafts (fraction 3) [1, 6]: decreased
- formation of an active complex of γ-secretase in lipid rafts [2, 7]: inhibited the formation of an active complex of γ-secretase in lipid rafts
- constituents of γ-secretase (nicastrin, presenilin-1, presenilin-2) in lipid rafts fraction (fraction 3) [2, 7]: disappeared from lipid rafts fraction
- flotillin in the lipid rafts fraction (structure of lipid rafts) [3, 6]: still remained in the lipid rafts fraction

Compound: methyl-β-cyclodextrin
- cholesterol in lipid rafts (fraction 3) ([1]; methyl-β-cyclodextrin 0 to 2 mM, 30 minutes, 37° C., FIG. 2): removed from lipid rafts
- formation of an active complex of γ-secretase in lipid rafts ([2]; methyl-β-cyclodextrin 0 to 2 mM, 30 minutes): inhibited the formation of an active complex of γ-secretase in lipid rafts
- constituents of γ-secretase (nicastrin, presenilin-1, presenilin-2, Pen-2) in lipid rafts fraction (fraction 3) ([2]; methyl-β-cyclodextrin 0 to 2 mM, 30 minutes, FIG. 1A-1D): disappeared from lipid rafts fraction
- distribution of flotillin (marker protein of lipid rafts) among fractions / raft structure ([3]; methyl-β-cyclodextrin 0 to 2 mM, 30 minutes, FIG. 1E): moved from the original position of the lipid rafts of fraction 3 to fraction 9 and 10
